Assay results published in the NIST ThermoML archive (doi:10.1021/je030226s).

Experiments:
[1] = xn = mol fraction of the nth substance listed; conditions: 101.32 kPa, Liquid
[2] = refractive index (Na D-line) (dimensionless); xn = mol fraction of the nth substance listed; conditions: 101.32 kPa, Liquid

CCCCCl [1-chlorobutane] + CCO
Conditions | mass density, 288.15 K [kg/m3] | mass density, 298.15 K [kg/m3] | mass density, 308.15 K [kg/m3] | refractive index, 288.15 K | refractive index, 298.15 K | refractive index, 308.15 K | viscosity, 288.15 K [mPa·s] | viscosity, 298.15 K [mPa·s] | viscosity, 308.15 K [mPa·s]
[1], x2 = 0 | 892.2 | 881 | 869.7 | – | – | – | 0.472 | 0.423 | 0.382
[1], x2 = 0.05 | 888.5 | 877.3 | 866 | – | – | – | 0.475 | 0.424 | 0.384
[1], x2 = 0.1 | 885.3 | 874.2 | 862.8 | – | – | – | 0.479 | 0.428 | 0.388
[1], x2 = 0.2 | 878.7 | 867.7 | 856.4 | – | – | – | 0.5 | 0.442 | 0.395
[1], x2 = 0.3 | 871.7 | 860.8 | 849.7 | – | – | – | 0.529 | 0.465 | 0.41
[1], x2 = 0.4 | 864.1 | 853.4 | 842.4 | – | – | – | 0.566 | 0.493 | 0.43
[1], x2 = 0.5 | 855.7 | 845.2 | 834.5 | – | – | – | 0.63 | 0.543 | 0.469
[1], x2 = 0.6 | 846.4 | 836.1 | 825.7 | – | – | – | 0.708 | 0.601 | 0.515
[1], x2 = 0.7 | 835.8 | 825.9 | 815.8 | – | – | – | 0.807 | 0.68 | 0.581
[1], x2 = 0.8 | 823.9 | 814.4 | 804.7 | – | – | – | 0.932 | 0.781 | 0.67
[1], x2 = 0.9 | 810 | 800.9 | 791.7 | – | – | – | 1.099 | 0.903 | 0.765
[1], x2 = 0.95 | 802.2 | 793.4 | 784.5 | – | – | – | 1.209 | 0.994 | 0.839
[2], x2 = 0 | – | – | – | 1.4045 | 1.3993 | 1.3941 | – | – | –
[2], x2 = 0.05 | – | – | – | 1.403 | 1.3978 | 1.3925 | – | – | –
[2], x2 = 0.1 | – | – | – | 1.4016 | 1.3964 | 1.3912 | – | – | –
[2], x2 = 0.2 | – | – | – | 1.3988 | 1.3937 | 1.3885 | – | – | –
[2], x2 = 0.3 | – | – | – | 1.3958 | 1.3907 | 1.3855 | – | – | –
[2], x2 = 0.4 | – | – | – | 1.3925 | 1.3875 | 1.3823 | – | – | –
[2], x2 = 0.5 | – | – | – | 1.389 | 1.384 | 1.3788 | – | – | –
[2], x2 = 0.6 | – | – | – | 1.3851 | 1.3802 | 1.375 | – | – | –
[2], x2 = 0.7 | – | – | – | 1.3807 | 1.3759 | 1.3708 | – | – | –
[2], x2 = 0.8 | – | – | – | 1.3756 | 1.3711 | 1.3661 | – | – | –
[2], x2 = 0.9 | – | – | – | 1.3697 | 1.3653 | 1.3609 | – | – | –
[2], x2 = 0.95 | – | – | – | 1.3665 | 1.3624 | 1.3581 | – | – | –

CCCCCl [1-chlorobutane] + CO
Conditions | mass density, 288.15 K [kg/m3] | mass density, 298.15 K [kg/m3] | mass density, 308.15 K [kg/m3] | refractive index, 288.15 K | refractive index, 298.15 K | refractive index, 308.15 K | viscosity, 288.15 K [mPa·s] | viscosity, 298.15 K [mPa·s] | viscosity, 308.15 K [mPa·s]
[1], x2 = 0 | 892.2 | 881 | 869.7 | – | – | – | 0.472 | 0.423 | 0.382
[1], x2 = 0.05 | 889.6 | 878.4 | 867.1 | – | – | – | 0.463 | 0.416 | 0.375
[1], x2 = 0.1 | 887.2 | 876.1 | 864.7 | – | – | – | 0.462 | 0.413 | 0.374
[1], x2 = 0.2 | 882.4 | 871.2 | 859.9 | – | – | – | 0.465 | 0.412 | 0.376
[1], x2 = 0.3 | 876.9 | 865.6 | 854.5 | – | – | – | 0.478 | 0.421 | 0.382
[1], x2 = 0.4 | 870.6 | 859.6 | 848.4 | – | – | – | 0.496 | 0.435 | 0.393
[1], x2 = 0.5 | 863.3 | 852.4 | 841.3 | – | – | – | 0.516 | 0.45 | 0.407
[1], x2 = 0.6 | 854.6 | 843.9 | 833 | – | – | – | 0.536 | 0.469 | 0.416
[1], x2 = 0.7 | 844.2 | 833.7 | 823.1 | – | – | – | 0.559 | 0.489 | 0.431
[1], x2 = 0.8 | 831.7 | 821.4 | 811 | – | – | – | 0.581 | 0.506 | 0.445
[1], x2 = 0.9 | 815.9 | 806 | 796 | – | – | – | 0.601 | 0.521 | 0.457
[1], x2 = 0.95 | 806.6 | 796.9 | 787.2 | – | – | – | 0.613 | 0.532 | 0.467
[2], x2 = 0 | – | – | – | 1.4045 | 1.3993 | 1.3941 | – | – | –
[2], x2 = 0.05 | – | – | – | 1.4032 | 1.398 | 1.3928 | – | – | –
[2], x2 = 0.1 | – | – | – | 1.4015 | 1.3964 | 1.3912 | – | – | –
[2], x2 = 0.2 | – | – | – | 1.3978 | 1.3927 | 1.3877 | – | – | –
[2], x2 = 0.3 | – | – | – | 1.3936 | 1.3885 | 1.3834 | – | – | –
[2], x2 = 0.4 | – | – | – | 1.3885 | 1.3835 | 1.3785 | – | – | –
[2], x2 = 0.5 | – | – | – | 1.3827 | 1.3778 | 1.3728 | – | – | –
[2], x2 = 0.6 | – | – | – | 1.3759 | 1.371 | 1.366 | – | – | –
[2], x2 = 0.7 | – | – | – | 1.3679 | 1.3628 | 1.3579 | – | – | –
[2], x2 = 0.8 | – | – | – | 1.3579 | 1.3529 | 1.3478 | – | – | –
[2], x2 = 0.9 | – | – | – | 1.3457 | 1.3413 | 1.3365 | – | – | –
[2], x2 = 0.95 | – | – | – | 1.3384 | 1.3342 | 1.3298 | – | – | –

CCCCO [butan-1-ol] + CCCCCl
x1 = 1
Conditions | mass density, 288.15 K [kg/m3] | mass density, 298.15 K [kg/m3] | mass density, 308.15 K [kg/m3] | refractive index, 288.15 K | refractive index, 298.15 K | refractive index, 308.15 K | viscosity, 288.15 K [mPa·s] | viscosity, 298.15 K [mPa·s] | viscosity, 308.15 K [mPa·s]
[1] | 813.5 | 805.9 | 798.2 | – | – | – | 3.394 | 2.598 | 2.019
[2] | – | – | – | 1.401 | 1.3972 | 1.3932 | – | – | –

CCO [ethanol] + CCCCCl
x1 = 1
Conditions | mass density, 288.15 K [kg/m3] | mass density, 298.15 K [kg/m3] | mass density, 308.15 K [kg/m3] | refractive index, 288.15 K | refractive index, 298.15 K | refractive index, 308.15 K | viscosity, 288.15 K [mPa·s] | viscosity, 298.15 K [mPa·s] | viscosity, 308.15 K [mPa·s]
[1] | 793.8 | 785.2 | 776.6 | – | – | – | 1.317 | 1.085 | 0.902
[2] | – | – | – | 1.363 | 1.3591 | 1.355 | – | – | –

CO [methanol] + CCCCCl
x1 = 1
Conditions | mass density, 288.15 K [kg/m3] | mass density, 298.15 K [kg/m3] | mass density, 308.15 K [kg/m3] | refractive index, 288.15 K | refractive index, 298.15 K | refractive index, 308.15 K | viscosity, 288.15 K [mPa·s] | viscosity, 298.15 K [mPa·s] | viscosity, 308.15 K [mPa·s]
[1] | 796.1 | 786.6 | 777.2 | – | – | – | 0.627 | 0.543 | 0.473
[2] | – | – | – | 1.3303 | 1.3275 | 1.3254 | – | – | –

CCCO [propan-1-ol] + CCCCCl
x1 = 1
Conditions | mass density, 288.15 K [kg/m3] | mass density, 298.15 K [kg/m3] | mass density, 308.15 K [kg/m3] | refractive index, 288.15 K | refractive index, 298.15 K | refractive index, 308.15 K | viscosity, 288.15 K [mPa·s] | viscosity, 298.15 K [mPa·s] | viscosity, 308.15 K [mPa·s]
[1] | 807.6 | 799.6 | 791.5 | – | – | – | 2.504 | 1.958 | 1.548
[2] | – | – | – | 1.3869 | 1.3829 | 1.3789 | – | – | –
